Measured values as given in US8952024B2, “Herbicidal pyrimidone derivatives” (E I du Pont de Nemours and Company, priority 2009, dated 2015).

Key:
Assay type in all cases: in vivo
[1] = test system: bermudagrass (Cynodon dactylon); test: Test B pre-/postemergence plant response; conditions: for Bermudagrass plant response rating (0 to 100 scale): 0 is no effect
Procedure, shortened: (§1)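 Compound in solvent + surfactant applied pre-em (loam/sand) or post-em (plants 2–18 cm, peat medium); greenhouse hold 13–15 days; visual 0–100 control score.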

[2] = test system: cocklebur (Xanthium strumarium); test: Test B pre-/postemergence plant response
Procedure, shortened: as §1

[3] = test system: goosegrass (Eleusine indica); test: Test B pre-/postemergence plant response
Procedure, shortened: as §1

[4] = test system: green foxtail (Setaria viridis); test: Test B pre-/postemergence plant response
Procedure, shortened: as §1

[5] = test system: lambsquarters (Chenopodium album); test: Test B pre-/postemergence plant response
Procedure, shortened: as §1

[6] = test system: large crabgrass (Digitaria sanguinalis); test: Test B pre-/postemergence plant response
Procedure, shortened: as §1

[7] = test system: morningglory (Ipomoea coccinea); test: Test B pre-/postemergence plant response
Procedure, shortened: as §1

[8] = test system: wheat (Triticum aestivum); test: Test B pre-/postemergence plant response; conditions: for Plant response rating, Wheat: Postemergence
Procedure, shortened: as §1

[9] = test system: wild oat (Avena fatua); test: Test B pre-/postemergence plant response
Procedure, shortened: as §1

[10] = test system: yellow nutsedge (Cyperus esculentus); test: Test B pre-/postemergence plant response
Procedure, shortened: as §1

[11] = test system: barnyardgrass (Echinochloa crus-galli); test: Test B flooded paddy test; conditions: for Plant response rating, Flood, Barnyardgrass: 250 g ai/ha, flooded paddy test, visual rating on 0 to 100 scale (0 no effect, 100 complete control) after 13 to 15 days; for Plant response rating, Barnyardgrass: Flood (flooded paddy test), 62 g ai/ha, scale of 0 to 100 where 0 is no effect and 100 is complete control, 13 to 15 days
Procedure, shortened: (§2)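 Each compound is added to standing floodwater (3 cm above soil, maintained) in pots of 2-leaf-stage plants; greenhouse exposure lasts 13–15 d before visual comparison with controls on a 0–100 control scale.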

[12] = test system: umbrella sedge (Cyperus difformis); test: Test B flooded paddy test; conditions: for Plant response rating, Flood, Sedge, Umbrella: 250 g ai/ha, flooded paddy test, visual rating on 0 to 100 scale (0 no effect, 100 complete control) after 13 to 15 days; for Plant response rating, Sedge, Umbrella: Flood (flooded paddy test), 62 g ai/ha, scale of 0 to 100 where 0 is no effect and 100 is complete control, 13 to 15 days
Procedure, shortened: as §2

[13] = Postemergence, 31 g ai/ha, 0 to 100 scale (0 no effect, 100 complete control)
[14] = Postemergence, 62 g ai/ha, scale 0 to 100 (0 no effect, 100 complete control)
[15] = Postemergence, 125 g ai/ha, scale 0 to 100 (0 no effect, 100 complete control)
[16] = Postemergence, 250 g ai/ha, scale 0 to 100 (0 no effect, 100 complete control), 13 to 15 days
[17] = 31 g ai/ha, 0 to 100 scale (0 no effect, 100 complete control)
[18] = 250 g ai/ha, scale 0 to 100 (0 no effect, 100 complete control), 13 to 15 days
[19] = 62 g ai/ha, postemergence, 100 is complete control, 13 to 15 days
[20] = 125 g ai/ha, scale 0 to 100 (0 no effect, 100 complete control)
[21] = 31 g ai/ha, postemergence, scale 0 to 100, 0 is no effect, 100 is complete control
[22] = Postemergence, 250 g ai/ha, scale 0 to 100 (0 no effect, 100 complete control)
[23] = 62 g ai/ha, postemergence, 0 is no effect, 100 is complete control, 13 to 15 days

COCCn1c(-c2cccc(C)c2)ncc(C(=O)C2=C(O)C3CCC(C3)C2=O)c1=O (centres unmarked) [Compound 233]
Plant response rating, Bermudagrass [1, 13]: 95 | Plant response rating, Bermudagrass [1, 14]: 95 | Plant response rating, Bermudagrass [1, 15]: 100 | Plant response rating, Bermudagrass [1, 16]: 100 | Plant response rating, Cocklebur [2, 13]: 90 | Plant response rating, Cocklebur [2, 14]: 100 | Plant response rating, Cocklebur [2, 15]: 100 | Plant response rating, Cocklebur [2, 16]: 100 | Plant response rating, Goosegrass [3, 13]: 85 | Plant response rating, Goosegrass [3, 14]: 95 | Plant response rating, Goosegrass [3, 15]: 98 | Plant response rating, Goosegrass [3, 16]: 98 | Plant response rating, Foxtail, Green [4, 13]: 85 | Plant response rating, Foxtail, Green [4, 14]: 90 | Plant response rating, Foxtail, Green [4, 15]: 95 | Plant response rating, Foxtail, Green [4, 16]: 100 | Plant response rating, Lambsquarters [5, 13]: 98 | Plant response rating, Lambsquarters [5, 14]: 98 | Plant response rating, Lambsquarters [5, 15]: 100 | Plant response rating, Lambsquarters [5, 16]: 100 | Plant response rating, Crabgrass, Large [6, 13]: 80 | Plant response rating, Crabgrass, Large [6, 14]: 90 | Plant response rating, Crabgrass, Large [6, 15]: 98 | Plant response rating, Crabgrass, Large [6, 16]: 100 | Plant response rating, Morningglory [7, 13]: 65 | Plant response rating, Morningglory [7, 14]: 80 | Plant response rating, Morningglory [7, 15]: 98 | Plant response rating, Morningglory [7, 16]: 100 | Plant response rating, Wheat [8, 17]: 10 | Plant response rating, Wheat ([8]; 62 g ai/ha, scale 0 to 100 (0 no effect, 100 complete control)): 30 | Plant response rating, Wheat [8, 18]: 65 | Plant response rating, Oat, Wild [9, 13]: 30 | Plant response rating, Oat, Wild [9, 14]: 35 | Plant response rating, Oat, Wild [9, 16]: 60 | Plant response rating, Nutsedge, Yellow [10, 13]: 0 | Plant response rating, Nutsedge, Yellow [10, 14]: 5 | Plant response rating, Nutsedge, Yellow [10, 15]: 25 | Plant response rating, Nutsedge, Yellow [10, 16]: 25 | Plant response rating, Flood, Barnyardgrass [11]: 65 | Plant response rating, Barnyardgrass [11]: 20 | Plant response rating, Flood, Sedge, Umbrella [12]: 85 | Plant response rating, Sedge, Umbrella [12]: 70

O=C1CCCC(O)=C1C(=O)c1cnc(-c2cccc(F)c2)n(C2CCCCC2)c1=O [Compound 187]
Bermudagrass plant response rating (0 to 100 scale) [1, 19]: 85 | Plant response rating, Bermudagrass [1, 13]: 75 | Plant response rating, Bermudagrass [1, 15]: 100 | Plant response rating, Bermudagrass [1, 16]: 100 | Plant response rating, Cocklebur [2, 13]: 100 | Plant response rating, Cocklebur [2, 15]: 100 | Plant response rating, Cocklebur [2, 16]: 100 | Plant response rating, Goosegrass [3, 13]: 85 | Plant response rating, Goosegrass [3, 15]: 100 | Plant response rating, Goosegrass [3, 16]: 100 | Plant response rating, Foxtail, Green [4, 13]: 65 | Plant response rating, Foxtail, Green [4, 15]: 98 | Plant response rating, Foxtail, Green [4, 16]: 98 | Plant response rating, Lambsquarters [5, 13]: 98 | Plant response rating, Lambsquarters [5, 15]: 100 | Plant response rating, Lambsquarters [5, 16]: 100 | Plant response rating, Crabgrass, Large [6, 13]: 85 | Plant response rating, Crabgrass, Large [6, 15]: 100 | Plant response rating, Crabgrass, Large [6, 16]: 100 | Plant response rating, Morningglory [7, 13]: 80 | Plant response rating, Morningglory [7, 15]: 100 | Plant response rating, Morningglory [7, 16]: 100 | Plant response rating, Wheat [8, 17]: 0 | Plant response rating, Wheat [8, 20]: 5 | Plant response rating, Wheat [8, 18]: 5 | Plant response rating, Oat, Wild [9, 13]: 10 | Plant response rating, Oat, Wild [9, 15]: 45 | Plant response rating, Oat, Wild [9, 16]: 45 | Plant response rating, Nutsedge, Yellow [10, 13]: 45 | Plant response rating, Nutsedge, Yellow [10, 15]: 65 | Plant response rating, Nutsedge, Yellow [10, 16]: 75 | Plant response rating, Flood, Barnyardgrass [11]: 80 | Plant response rating, Barnyardgrass [11]: 45 | Plant response rating, Flood, Sedge, Umbrella [12]: 100 | Plant response rating, Sedge, Umbrella [12]: 95

COCCCn1c(-c2cccc(C)c2)ncc(C(=O)C2=C(O)CCCC2=O)c1=O [Compound 118, 5-[(2-hydroxy-6-oxo-1-cyclohexane-1-yl)carbonyl]-3-(3-methoxypropyl)-2-(3-methylphenyl)-4(3H)-pyrimidinone]
Plant response rating, Bermudagrass [1, 21]: 75 | Bermudagrass plant response rating (0 to 100 scale) [1, 19]: 95 | Plant response rating, Bermudagrass [1, 15]: 98 | Plant response rating, Bermudagrass [1, 22]: 98 | Plant response rating, Cocklebur [2, 21]: 40 | Cocklebur plant response rating (0 to 100 scale) [2, 23]: 40 | Plant response rating, Cocklebur [2, 15]: 85 | Plant response rating, Cocklebur [2, 22]: 98 | Plant response rating, Goosegrass [3, 21]: 55 | Goosegrass plant response rating (0 to 100 scale) [3, 23]: 65 | Plant response rating, Goosegrass [3, 15]: 80 | Plant response rating, Goosegrass [3, 22]: 90 | Plant response rating, Foxtail, Green [4, 21]: 50 | Foxtail, Green plant response rating (0 to 100 scale) [4, 23]: 85 | Plant response rating, Foxtail, Green [4, 15]: 95 | Plant response rating, Foxtail, Green [4, 22]: 95 | Plant response rating, Lambsquarters [5, 21]: 85 | Lambsquarters plant response rating (0 to 100 scale) [5, 23]: 98 | Plant response rating, Lambsquarters [5, 15]: 100 | Plant response rating, Lambsquarters [5, 22]: 100 | Plant response rating, Crabgrass, Large [6, 21]: 70 | Crabgrass, Large plant response rating (0 to 100 scale) [6, 23]: 75 | Plant response rating, Crabgrass, Large [6, 15]: 80 | Plant response rating, Crabgrass, Large [6, 22]: 95 | Plant response rating, Morningglory [7, 21]: 10 | Morningglory plant response rating (0 to 100 scale) [7, 23]: 60 | Plant response rating, Morningglory [7, 15]: 70 | Plant response rating, Morningglory [7, 22]: 80 | Wheat plant response rating (0 to 100 scale) [8, 23]: 5 | Plant response rating, Wheat [8, 20]: 5 | Plant response rating, Oat, Wild [9, 21]: 5 | Oat, Wild plant response rating (0 to 100 scale) [9, 23]: 5 | Plant response rating, Oat, Wild [9, 15]: 10 | Plant response rating, Oat, Wild [9, 22]: 40 | Plant response rating, Nutsedge, Yellow [10, 21]: 35 | Nutsedge, Yellow plant response rating (0 to 100 scale) [10, 23]: 45 | Plant response rating, Nutsedge, Yellow [10, 15]: 65 | Plant response rating, Nutsedge, Yellow [10, 22]: 65 | Plant response rating, Flood, Barnyardgrass [11]: 70 | Plant response rating, Barnyardgrass [11]: 50 | Plant response rating, Flood, Sedge, Umbrella [12]: 85 | Plant response rating, Sedge, Umbrella [12]: 70
